pEC50: −log10 of the molar value.
What was measured:
[1] = CC50 assay (CellTiter-Glo) in Huh-7 HCV replicon cells; format: cell-based; details: human
Summary of the method: (§1)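 Cytotoxicity (CC50) read by CellTiter-Glo luminescence after 10 min, and antiviral EC50 by luciferase signal after 30 min lysis with substrate, both at room temperature. Preceding step: 3-day exposure of 6000 Huh-7 HCV replicon cells per well to compound dilution series at 37° C, 5% CO2, in 0.5% DMSO.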

[2] = tested on: HCV replicon in human hepatoma Huh-7 cell line; test: Anti-HCV replicon assay, EC50 (luciferase luminescence); format: cell-based; details: Hepatitis C virus, Huh-7, 72 h
Summary of the method: as §1

SMILES	CC50 at 3 days ([1]; Table 2, 3 days incubation) [nM]	pEC50 [2]	CC50 at 3 days ([1]; Table 1, 3 days incubation) [nM]
CS(=O)(=O)c1cccc(-c2ccc3nc(NCc4ccc(-n5cncn5)cc4)nc(O[C@@H]4C[C@@H]5C[C@@H]5C4)c3n2)c1 [Example 194, N-(4-(1H-1,2,4-triazol-1-yl)benzyl)-4-((1S,3r,5R)-bicyclo[3.1.0]hexan-3-yloxy)-6-(3-(methylsulfonyl)phenyl) pyrido[3,2-d]pyrimidin-2-amine]	1000 to 10000	> 7.00	–
CC#Cc1ccc2nc(N[C@H](C)c3ccc(S(N)(=O)=O)cc3)nc(O[C@@H]3C[C@@H]4C[C@@H]4C3)c2n1 [Example 313, 4-((R)-1-(4-((1S,3r,5R)-bicyclo[3.1.0]hexan-3-yloxy)-6-(prop-1-ynyl)pyrido[3,2-d]pyrimidin-2-ylamino)ethyl) benzenesulfonamide]	> 10000	> 7.00	–
NS(=O)(=O)c1cc(CNc2nc(NC3(C(F)(F)F)CC3)c3nc(C#CC4CC4)ccc3n2)cc(C(F)(F)F)c1 [Example 106, 3-((6-(2-cyclopropylethynyl)-4-(1-(trifluoromethyl)cyclo-propylamino)pyrido[3,2-d]pyrimidin-2-ylamino)methyl)-5-(trifluoromethyl)benzene-sulfonamide]	> 10000	> 7.00	–
C[C@@H](Cn1cncn1)Nc1nc(NCC(F)(F)F)c2nc(-c3cccc(S(C)(=O)=O)c3)ccc2n1 [Example 169, N^2-((S)-1-(1H-1,2,4-triazol-1-yl)propan-2-yl)-6-(3-(methylsulfonyl)phenyl)-N^4-(2,2,2-trifluoroethyl)pyrido [3,2-d]pyrimidine-2,4-diamine]	> 10000	5.70 to 6.60	–
CC(C)Oc1nc(NCc2ccc(-n3cncn3)cc2)nc2ccc(C#CC3CC3)nc12 [Example 308, N-(4-(1H-1,2,4-triazol-1-yl)benzyl)-6-(2-cyclopropyl-ethynyl)-4-isopropoxypyrido [3,2-d]pyrimidin-2-amine]	> 10000	5.70 to 6.60	–
CS(=O)(=O)c1cccc(-c2ccc3nc(NCc4cccc(S(N)(=O)=O)c4)nc(NCC(F)(F)F)c3n2)c1 [Example 14, 3-{[6-(3-Methanesulfonyl-phenyl)-4-(2,2,2-trifluoro-ethylamino)-pyrido[3,2-d]pyrimidin-2-ylamino]-methyl}-benzenesulfonamide]	–	> 7.00	10000 to 25000
C[C@@H](Nc1nc(OC2CCC2)c2nc(C#CC3CC3)ccc2n1)c1ccc(S(N)(=O)=O)cc1 [Example 305, (R)-4-(1-(4-cyclobutoxy-6-(2-cyclopropylethynyl)pyrido [3,2-d]pyrimidin-2-ylamino)ethyl)benzenesulfonamide]	> 10000	> 7.00	–
CC1(Oc2nc(NCc3ccc(-n4cncn4)cc3)nc3ccc(-c4cnc(OC5CC5)nc4)nc23)CC1 [Example 257, N-(4-(1H-1,2,4-triazol-1-yl)benzyl)-6-(2-cyclopropoxy-pyrimidin-5-yl)-4-(1-methyl-cyclopropoxy)pyrido[3,2-d] pyrimidin-2-amine]	1000 to 10000	> 7.00	–
CCOc1ccc(-c2ccc3nc(NCc4ccc(-n5ccnc5)cc4)nc(NCC(F)(F)F)c3n2)cc1S(N)(=O)=O [Example 262, 5-(2-(4-(1H-imidazol-1-yl)benzylamino)-4-(2,2,2-trifluoroethylamino)pyrido [3,2-d]pyrimidin-6-yl)-2-ethoxybenzenesulfonamide]	1000 to 10000	> 7.00	–
C[C@@H](Nc1nc(NC2(C(F)(F)F)CCCC2)c2nc(-c3ccc(F)cc3)ccc2n1)c1ccc(S(N)(=O)=O)cc1 [Example 71, (R)-4-(1-(6-(4-fluorophenyl)-4-(1-(trifluoromethyl)cyclo-pentylamino)pyrido[3,2-d]pyrimidin-2-ylamino)ethyl) benzenesulfonamide]	> 10000	5.70 to 6.60	–
NS(=O)(=O)c1cc(Cl)cc(CNc2nc(NC3(C(F)(F)F)CC3)c3nc(-c4ccc(C(=O)NC5(C(F)(F)F)CC5)cc4)ccc3n2)c1 [Example 95, 3-chloro-5-((6-(4-(1-(trifluoromethyl)cyclopropyl-aminocarbonyl)phenyl)-4-(1-(trifluoromethyl)cyclopropyl-amino)pyrido[3,2-d]pyrimidin-2-ylamino)methyl)benzene-sulfonamide]	1000 to 10000	> 7.00	–
C[C@@H](Nc1nc(NCC(F)(F)F)c2nc(-c3cccc(S(C)(=O)=O)c3)ccc2n1)c1ccc(-n2cncn2)cc1 [Example 170, N^2-((R)-1-(4-(1H-1,2,4-triazol 1-yl)phenyl)ethyl)-6-(3-(methylsulfonyl)phenyl)-N^4-(2,2,2-trifluoroethyl)pyrido [3,2-d]pyrimidine-2,4-diamine]	1000 to 10000	> 7.00	–
COCC#Cc1ccc2nc(NCc3ccc(S(N)(=O)=O)cc3)nc(NCC(F)(F)F)c2n1 [Example 283, 4-((6-(3-methoxyprop-1-ynyl)-4-(2,2,2-trifluoroethylamino)pyrido[3,2-d]pyrimidin-2-ylamino)methyl)benzene-sulfonamide]	> 10000	6.60 to 7.00	–
CS(=O)(=O)c1cccc(-c2ccc3nc(NC4CC4)nc(NCC(F)(F)F)c3n2)c1 [Example 138, N^2-cyclopropyl-6-(3-(methylsulfonyl)phenyl)-N^4-(2,2,2-trifluoroethyl)pyrido [3,2-d]pyrimidine-2,4-diamine]	> 10000	6.60 to 7.00	–
CC1(Oc2nc(NCc3ccc(-n4cncn4)cc3)nc3ccc(-c4ccc(OC(F)F)c(S(C)(=O)=O)c4)nc23)CC1 [Example 191, N-(4-(1H-1,2,4-triazol-1-yl)benzyl)-6-(4-(difluoro-methoxy)-3-(methylsulfonyl)phenyl)-4-(1-methylcyclo-propoxy)pyrido[3,2-d] pyrimidin-2-amine]	> 10000	> 7.00	–
N#Cc1cc(F)ccc1-c1ccc2nc(NCc3cc(C(F)(F)F)cc(S(N)(=O)=O)c3)nc(NC3(C(F)(F)F)CC3)c2n1 [Example 99, 3-((6-(2-cyano-4-fluorophenyl)-4-(1-(trifluoromethyl)cyclopropyl-amino)pyrido[3,2-d]pyrimidin-2-ylamino)methyl)-5-(trifluoro-methyl)benzenesulfonamide]	1000 to 10000	> 7.00	–
COCc1ccc(-c2ccc3nc(NCc4ccc(S(N)(=O)=O)cc4)nc(NCC(F)(F)F)c3n2)cc1S(C)(=O)=O [Example 146, 4-((6-(4-(methoxymethyl)-3-(methylsulfonyl)phenyl)-4-(2,2,2-trifluoroethylamino)pyrido[3,2-d]pyrimidin-2-ylamino)methyl)benzene-sulfonamide]	> 10000	> 7.00	–
C[C@@H](Nc1nc(OC2CCC2)c2nc(-c3cccc(S(C)(=O)=O)c3)ccc2n1)c1ccc(S(N)(=O)=O)cc1 [Example 200, 4-((R)-1-(4-cyclobutoxy-6-(3-(methylsulfonyl)phenyl)pyrido [3,2-d]pyrimidin-2-ylamino)ethyl)benzenesulfonamide]	> 10000	6.60 to 7.00	–
COc1ccc(-c2ccc3nc(N[C@H](C)c4ccc(-n5cncn5)cc4)nc(NC4(C(F)(F)F)CC4)c3n2)cc1S(C)(=O)=O [Example 94, N^2-((R)-1-(4-(1H-1,2,4-triazol-1-yl)phenyl)ethyl)-6-(4-methoxy-3-(methylsulfonyl)phenyl)-N^4-(1-(trifluoromethyl)cyclopropyl) pyrido[3,2-d]pyrimidine-2,4-diamine]	1000 to 10000	> 7.00	–
C[C@@H](Nc1nc(NCC(F)(F)F)c2nc(C#CC(C)(C)O)ccc2n1)c1ccc(S(N)(=O)=O)cc1 [Example 276, (R)-4-(1-(6-(3-hydroxy-3-methylbut-1-ynyl)-4-(2,2,2-trifluoroethylamino)pyrido [3,2-d]pyrimidin-2-ylamino)ethyl)benzenesulfonamide]	> 10000	5.70 to 6.60	–
CS(=O)(=O)c1cccc(-c2ccc3nc(NCCO)nc(NCC(F)(F)F)c3n2)c1 [Example 162, 2-(6-(3-(methylsulfonyl)phenyl)-4-(2,2,2-trifluoroethyl-amino)pyrido[3,2-d]pyrimidin-2-ylamino)ethanol]	> 10000	5.70 to 6.60	–
Cc1ccc(-c2ccc3nc(NCc4ccc(S(N)(=O)=O)cc4)nc(NC4(C(F)(F)F)CC4)c3n2)cc1S(C)(=O)=O [Example 29, 4-{[6-(3-methanesulfonyl-4-methylphenyl)-4-(1-trifluoromethyl-cyclopropylamino)-pyrido[3,2-d]pyrimidin-2-ylamino]-methyl}-benzenesulfonamide]	1000 to 10000	> 7.00	–
Fc1ccc(-c2ccc3nc(NCc4ccc(-n5ccnc5)cc4)nc(NC4(C(F)(F)F)CC4)c3n2)cc1 [Example 126, N^2-(4-(1H-imidazol-1-yl)benzyl)-6-(4-fluorophenyl)-N^4-(1-(trifluoromethyl)cyclopropyl)pyrido[3,2-d] pyrimidine-2,4-diamine]	1000 to 10000	5.70 to 6.60	–
CS(=O)(=O)c1cc(-c2ccc3nc(NCc4ccc(S(N)(=O)=O)cc4)nc(NCC(F)(F)F)c3n2)ccc1OC(F)F [Example 164, 4-((6-(4-(difluoromethoxy)-3-(methylsulfonyl)phenyl)-4-(2,2,2-trifluoroethylamino)pyrido[3,2-d]pyrimidin-2-ylamino)methyl)benzene-sulfonamide]	> 10000	> 7.00	–
CS(=O)(=O)c1cc(-c2ccc3nc(NCc4ccc(-n5cncn5)cc4)nc(NCC(F)(F)F)c3n2)ccc1OC(F)F [Example 175, N^2-(4-(1H-1,2,4-triazol-1-yl)benzyl)-6-(4-(difluoro-methoxy)-3-(methylsulfonyl)phenyl)-N^4-(2,2,2-trifluoroethyl) pyrido[3,2-d]pyrimidine-2,4-diamine]	> 10000	> 7.00	–
CS(=O)(=O)Nc1cc(F)cc(CNc2nc(NC3(C(F)(F)F)CC3)c3nc(-c4ccc(F)cc4)ccc3n2)c1 [Example 107, N-(3-fluoro-5-((6-(4-fluorophenyl)-4-(1-(trifluoromethyl)cyclopropyl-amino)pyrido[3,2-d]pyrimidin-2-ylamino)methyl)phenyl)methane-sulfonamide]	> 10000	5.70 to 6.60	–

Source: patent publication US8536187B2 (Gilead Sciences, Inc., priority 2008, dated 2013)
